Test results: patent US11110105B2, “Compounds, composition and uses thereof for treating cancer” (INSTITUT GUSTAVE ROUSSY, priority 2017, dated 2021)
Where two headings read alike, the source gives them in different places.

Legend:
[1] = tested on: MCA205 globin-SL8-intron tumors; assay: Tumor challenge, MCA205 globin-SL8-intron in immunodeficient Nu/Nu nude mice; format: in vivo, mouse; details: 18 mg/kg intraperitoneally
Description: (D) MCA205 globin-SL8-intron cells were inoculated subcutaneously on the […] mice flank. […] Tumor size was assessed every 3 to 4 days until day 27. Each line represents the tumor size in area (mm^2) of 6 mice in each group. Data are given as mean ±SEM. *p<0.05, **p<0.01 (ANOVA with Tukey's multiple comparison test comparing all groups). (E) MCA205 globin-SL8-intron cells were inoculated subcutaneously on the Nude nu/nu mice flank. […] Tumor size was assessed every 3 to 4 days until day 27. Each line represents the tumor size in area (mm^2) of 6 mice in each group. Data are given as mean ±SEM. (A) Experimental settings. Growth of (B) sarcoma MCA205 or (C) melanoma B16F10 cells that both stably express the globin-SL8-intron construct or (D) MCA205 Wild Type (WT) or (E) B16F10 WT cells that were subcutaneously inoculated on the flank of immunocompetent C57BL/6 mice injected intraperitoneally with 12 mg/kg or 18 mg/kg of isoginkgetin at days 5, 10 and 15 after inoculation. Tumor size was assessed every 3 to 4 days until reaching the established ethical endpoints. Each line represents the tumor size in area (mm^2) of 6 mice in each group. […] Area of the tumor is recorded every 3 to 4 days until day 27. […] Results are expressed as mean ±SEM. *[…] with Tukey's multiple comparison test comparing all groups).

[2] = tested on: MCA205 globin-SL8-intron (MCA205 GI) tumors; assay: Tumor challenge, MCA205 globin-SL8-intron in immunocompetent C57BL/6 mice; format: in vivo, mouse; details: for tumor growth: C57BL/6
Description: (A) Experimental settings. (B) MCA205 globin-SL8-intron cells were inoculated subcutaneously on the mice flank. Five days and fifteen days later, 6 mg/kg, 12 mg/kg or 18 mg/kg isoginkgetin was injected intraperitoneally. Tumor size was assessed every 3 to 4 days until day 27. Each line represents the tumor size in area (mm^2) of 6 mice in each group. Data are given as mean ±SEM. *p<0.05 (ANOVA with Tukey's multiple comparison test comparing all groups).
(A) Experimental settings. Growth of (B) sarcoma MCA205 or (C) melanoma B16F10 cells that both stably express the globin-SL8-intron construct or (D) MCA205 Wild Type (WT) or (E) B16F10 WT cells that were subcutaneously inoculated on the flank of immunocompetent C57BL/6 mice injected intraperitoneally with 12 mg/kg or 18 mg/kg of isoginkgetin at days 5, 10 and 15 after inoculation. Tumor size was assessed every 3 to 4 days until reaching the established ethical endpoints. Each line represents the tumor size in area (mm^2) of 6 mice in each group. Size in area (mm^2) of (F) MCA205 globin-SL8-intron, (G) B16F10 globin-SL8-intron, (H) MCA205 WT or (I) B16F10 WT tumors subcutaneously inoculated on the flank of immunodeficient Nu/Nu Nude mice injected intraperitoneally with 18 mg/kg of isoginkgetin at days 5, 10 and 15 after inoculation. Data are presented at the day before the endpoints are reached.
Data are given as mean ±SEM. *P<0.05, **P<0.01, ***P<0.001 (unpaired student t test). […] Tumor size was assessed every 3 to 4 days until reaching the established ethical endpoints. Each line represents the tumor size in area (mm^2) of at least 6 mice in each group. Data are given as mean ±SEM. *p<0.05, **p<0.01 (ANOVA with Tukey's multiple comparison test comparing all groups). […] A Log-rank (Mantel-Cox) test was performed.
C57B1/6J female mice are obtained from Harlan. NU/NU nude mouse mice are obtained from Charles River. At 7 weeks old, mice are injected subcutaneously on the right flank with 5×10^4 MCA205-Globin-SL8-intron cells or with 4×10^4 B16F10-Globin-SL8-intron cells along with matrigel (VWR). […] Fifteen days after challenge mouse are again treated intreaperitonealy with the same drug. Area of the tumor is recorded every 3 to 4 days until day 27. All animal experiments were carried out in compliance with French and European laws and regulations. Results are expressed as mean ±SEM. *p<0.05, **P<0.01, ***P<0.001 (ANOVA with Tukey's multiple comparison test comparing all groups).

Water solubility = format: physicochemical
[3] = MTT viability, mouse cell lines (text summary of table 2); format: cell-based; details: MCA205 sarcoma and B16F10 melanoma cells, MCA205 and B16F10, 6.25-25 μM, read-out: cell viability at efficient doses
Description: In parallel, the same experiment was performed on the mouse melanoma B16F10 and sarcoma MCA205 cell lines that were transiently expressing the Globin-SL8-intron construct. […] Efficient doses lead to cell viability over 50% in these cell lines (table 2).
MTT assay on MCA205 and B16F10 cell lines treated with 6.25 μM, 15 μM or 25 μM of isoginkgetin. Dare are given as the mean of the percentage of cell viability ±SEM from at least three independent experiments.

[4] = 18 mg/kg intraperitoneally, days 5, 10 and 15
[5] = 18 mg/kg intraperitoneally, days 5 and 15

SMILES	tumor growth ([1]; days 5 and 15)	survival (Kaplan Meier) ([2]; 18 mg/kg intraperitoneally)	tumor growth [2, 4]	tumor growth [2, 5]	water solubility (Water solubility)	water solubility (Water solubility; listed as M2P2)	tumor growth ([1]; days 5, 10 and 15)	viability [3] [%]	reduction of tumor growth at day 27 after challenge ([2]; 6 mg/kg intraperitoneally, days 5 and 15) [%]	reduction of tumor size at day 27 after challenge ([2]; 12 mg/kg intraperitoneally, days 5, 10 and 15)	reduction of tumor size at day 27 after challenge [2, 4]	reduction of tumor growth at day 27 after challenge [2, 5] [%]	survivors 100 days after tumor inoculation ([2]; 18 mg/kg intraperitoneally, Kaplan Meier)
COc1ccc(-c2cc(=O)c3c(OC)cc(OP(=O)([O-])[O-])c(-c4cc(-c5cc(=O)c6c(OC)cc(OP(=O)([O-])[O-])cc6o5)ccc4OC)c3o2)cc1.[Na+].[Na+].[Na+].[Na+] [IM2P2]	any of the compounds used have an effect on the tumor growth	does not impact survival	no impact	did not demonstrate any tumor growth decrease	able to be dissolved in water	considerably higher than that of the parent compound isoginkgetin							
COc1ccc(-c2cc(=O)c3c(O)cc(O)c(-c4cc(-c5cc(=O)c6c(O)cc(O)cc6o5)ccc4OC)c3o2)cc1 [Isoginkgetin, isoginkgetin]					insoluble in water		No effect	> 50	50	over 50%	over 50%	50	around 30%
